Measurements: PubChem BioAssay (NCI)
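Results reflect a 48-hour exposure of cells in 96-well plates to compound at five concentrations. Definition used: TGI = concentration required for complete inhibition of growth.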

Tests used:
Assay in all cases: growth of human tumour cells (NCI), 48 h
[1] = system: SF-295 CNS
[2] = system: SR leukemia
[3] = system: SK-MEL-5 melanoma
[4] = system: RXF 393 renal
[5] = system: OVCAR-3 ovarian
[6] = system: DU-145 prostate
[7] = system: NCI-H23 lung
[8] = system: MDA-MB-435
[9] = system: T-47D breast
[10] = system: BT-549 breast
[11] = system: LOX IMVI melanoma
[12] = system: MOLT-4 leukemia
[13] = system: M14 melanoma
[14] = system: NCI-H226 lung
[15] = system: COLO 205 colon
[16] = system: U251 CNS
[17] = system: OVCAR-4 ovarian
[18] = system: UACC-257 melanoma
[19] = system: HL-60(TB) leukemia
[20] = system: SF-268 CNS
[21] = system: NCI/ADR-RES ovarian
[22] = system: 786-0 renal
[23] = system: HCT-116 colon
[24] = system: RPMI-8226 leukemia
[25] = system: ACHN renal
[26] = system: SNB-75 CNS
[27] = system: SK-MEL-28 melanoma
[28] = system: CAKI-1 renal
[29] = system: A498 renal
[30] = system: K-562 leukemia
[31] = system: NCI-H522 lung
[32] = system: UO-31 renal
[33] = system: OVCAR-5 ovarian
[34] = system: HOP-62 NSCLC
[35] = system: PC-3 prostate
[36] = system: TK-10 renal
[37] = system: SW-620 colon
[38] = system: MDA-MB-231 breast
[39] = system: KM12 colon
[40] = system: A549 NSCLC
[41] = system: SK-MEL-2 melanoma
[42] = system: HOP-92 NSCLC
[43] = system: SN12C renal
[44] = system: EKVX NSCLC
[45] = system: HS 578T breast
[46] = system: MALME-3M melanoma
[47] = system: OVCAR-8 ovarian
[48] = system: HT29 colon
[49] = system: NCI-H460 lung
[50] = system: MDA-N
[51] = system: UACC-62 melanoma
[52] = system: CCRF-CEM leukemia
[53] = system: IGROV1 ovarian
[54] = system: SF-539 CNS
[55] = system: MCF7 breast
[56] = system: KM20L2 colon
[57] = system: SK-OV-3 ovarian
[58] = system: HCC-2998 colon
[59] = system: SNB-78 CNS
[60] = system: DMS 114 small cell lung
[61] = system: DLD-1 colon
[62] = system: HCT-15 colon
[63] = system: HOP-18 NSCLC
[64] = system: XF 498 CNS
[65] = system: SNB-19 CNS
[66] = system: LXFL 529 NSCLC

Measured: TGI

Cc1ccc2ccc(=O)oc2c1
not listed: [56] | [57] | [58] | [59] | [60] | [61] | [62] | [63] | [64] | [65] | [66]
> 100 µM: all other assays above

COC(=O)/C=C(C)/C=C/c1cc(C(C)=O)c(C)o1
not listed: [3] | [4] | [6] | [8] | [9] | [10] | [14] | [15] | [21] | [27] | [29] | [35] | [36] | [38] | [43] | [45] | [50] | [55]
> 100 µM: all other assays above
